Tested on: bioprinted liver organoids
Assay type: cell-based
Settings: 20 mM NAC with 10 mM APAP, general trend of the data

SMILES: CC(=O)N[C@@H](CS)C(=O)O [NAC, N-acetyl-L-cysteine]
- rescue of liver organoids from APAP insult: can be rescued

Source: patent US20230417740A1, “TISSUE-MIMICKING HYDROGEL COMPOSITIONS FOR BIOFABRICATION” (Wake Forest University Health Sciences, priority 2014, published 2023)
